{"source": "patent US5077195A", "about": "“Polypeptides complementary to peptides or proteins having an amino acid sequence or nucleotide coding sequence at least partially known and methods of design therefor” (Board of Reagents, The University of Texas System, priority 1986, dated 1991)", "key": {"[1]": {"test_system": "mouse adrenal tumor (Y-1) cells", "test": "Glucocorticoid hormone production by Y-1 cells (corticosterone RIA)", "assay_type": "cell-based", "conditions": "ACTH 10 microunits/well, 18 hrs", "method": "An induction of glucocorticoid hormone production by ACTH and anti-HTCA was found with cultured mammalian cells. Duplicate cultures of mouse adrenal tumor (Y-1) cells in microtiter plates were treated with culture media, ACTH (10 microunits/well) or various dilutions of the anti-HTCA.\n^a Duplicate cultures of mouse adrenal (Y1) cells in microtiter plate\nwere treated with culture media, ACTH (10 microunits/well) or the\nindicated dilutions of antibody to HTCA. After 18 hrs incubation at\n37° in 4% CO2, replicate cultures were pooled and assayed for\nglucocorticoid hormone production by a radioimmunoassay (RIA) for […]"}, "[2]": {"test_system": "mouse adrenal tumor (Y-1) cells", "test": "Binding of anti-HTCA to affixed Y-1 cells (ELISA)", "conditions": "FIG. 5", "method": "Mouse adrenal tumor (Y-1) cells were affixed by glutaraldehyde in flat bottom wells of a microtiter plate. The affixed cells were then treated with rabbit anti-KLH or rabbit anti-HTCA alone or in the presence of several levels of ACTH. After washing, the microtiter wells were treated with goat antibody to rabbit immunoglobulin the goat antibody being coupled to the enzyme alkaline phosphatase. After washing away unbound antibody-phosphatase complex, p-nitrophenyl phosphate was added and the enzyme dependent development of absorbancy at […] was monitored. […] ACTH and anti-HTCA appeared competitive for the same binding site on the mouse adrenal tumor (Y-1) cells. Rabbit anti KLH had no effect (shaded region)."}, "[3]": {"test_system": "antibody to ACTH", "test": "Competition in standard RIA for ACTH", "assay_type": "binding", "method": "Using a standard Radioimmunoassay (RIA) for ACTH (Immuno Nuclear Corporation, CAT. #2400), the ability of antibodies to a peptide (HTCA) complementary to ACTH to bind with antibodies to ACTH was determined. In a Standard RIA for ACTH, unlabelled ACTH is added in known amounts to a solution of radiolabelled ACTH and antibody to ACTH to compete away the binding of radiolabelled ACTH to its antibody. The amount of radiolabel bound is determined by immunoprecipitating the antibody and counting the radioactivity of the precipitiate.\nIn the experiment, unlabelled ACTH, immunoglobulin from rabbits immunized with the complementary peptide HTCA, and immunoglobulins from normal rabbits were used to compete with radiolabelled ACTH in the RIA. Immunoglobulin (35 mg/ml) solutions were prepared in phosphate buffered saline, and ACTH and ^125 I-ACTH were prepared as specified in the RIA kit."}, "[4]": {"test_system": "HTCA", "sequence (as listed by the source)": "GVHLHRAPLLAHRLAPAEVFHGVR", "test": "Solid phase radiobinding assay for ACTH in serum on HTCA-coated wells", "assay_type": "binding", "conditions": "for Log10 Dilution at which 50% inhibition occurred: graphic interpolation", "method": "Complementary peptide (HTCA) was dissolved in phosphate buffered saline (PBS) at 1 mg/ml and 200 ul aliquots were placed in wells of a 96 well polyvinyl assay plate (Microtest III, Falcon Cat. #3911). HTCA was allowed to coat the wells overnight at 4° C. The coating solution was removed and the wells were washed three times with PBS. Radiolabeled ACTH (^125 I-ACTH, New England Nuclear NEX-65) was diluted into PBS containing 0.0005% TWEEN-20 so as to deliver 50 pg (or about 30,000 cpm) in a 20 ul volume.\nSerum samples were prepared in a 96 well tissue culture plate by serial dilution of serum into PBS/TWEEN 20 to give a final volume of 180 ul/well. The serum samples were then transferred to the HTCA coated a ssay plate and allowed to incubate. Finally, 20 ul of ^125 I-ACTH solution was added, incubated, and the total sample of 200 ul was removed. After washing three times with PBS, the wells were cut from the plate and counted in a gamma counter.\nSerum samples used in this study contained either 50 pg/ml or 500 pg/ml of ACTH added to fetal calf serum (FCS)."}, "[5]": {"test_system": "female ICR mice", "test": "Induction of catatonia in mice by i.c. injection of serum", "assay_type": "in vivo", "conditions": "simultaneous i.c. injection 0.2 mg", "source_text": "It is well known that large doses of opiate-like substances can induce a catatonic state in animals which is inhibited or reversed by treatment with the opiate antagonist naloxone. In analogy with the results in earlier examples, the ability of a peptide (gamma-ODNE) complementary to an opiate peptide, gamma-endorphin, to induce antibodies that have opiate properties was examined.\nGamma-ODNE (Example II) was conjugated to Keyhole Limpet Hemocyanin ([…]) and used with Freund's adjuvant to generate rabbit antibodies in a conventional manner (see Example 1F). Both normal and induced rabbit sera were injected intracerebroventicularly (i.c.) into female ICR mice."}, "[6]": {"target": "T1, bovine gamma-endorphin (Bos taurus, UniProt P01190)", "T1 construct": "purchased Boehringer Mannheim (Indianapolis, IN); host or cells: chemical synthesis", "test": "ELISA binding of gamma-endorphin to coated wells", "conditions": "gamma-odne 40 ug/well; compared with insulin or BSA coating", "method": "The wells of a 96-well round-bottomed microtiter plate were coated (by the procedure described in Example 1B) with gamma-odne (40 ug/well), insulin (20U/well) or bovine serum albumin (BSA, 200 ug/well). Varying concentrations of gamma-endorphin (as shown on the abscissa in FIG. 7) were incubated in the coated wells for 1 hr, after which the plates were thrice washed with PBS-Tween buffer. The wells were then treated with rabbit antibody for gamma-endorphin, washed, and then treated with goat antibody against rabbit immunoglobulin the goat antibody being conjugated to alkaline phosphatase. After washing away unbound goat antibody conjugate, the bound alkaline phosphatase activity was measured with p-nitrophenylphosphate as earlier described. The results of the above manipulations are shown in FIG. 7 where the extent of absorbance at 405 nm reflects the degree of gamma-endorphin binding to wells coated with gamma-odne, insulin or BSA. […] The shaded area in FIG. 7 represents the extent of gamma-endorphin binding in the presence of soluble excess of gamma-odne. Thus it is shown that a second pair of complementary peptides interacts in a manner showing affinity and apparent congruence."}, "[7]": {"target": "T2, opiate receptors on NG108-15 cells (Mus musculus, UniProt P32300)", "T2 construct": "opiate receptors on NG108-15 cells; endogenous in cells; host or cells: NG108-15 cells", "T2 sequence (P32300 whole entry)": "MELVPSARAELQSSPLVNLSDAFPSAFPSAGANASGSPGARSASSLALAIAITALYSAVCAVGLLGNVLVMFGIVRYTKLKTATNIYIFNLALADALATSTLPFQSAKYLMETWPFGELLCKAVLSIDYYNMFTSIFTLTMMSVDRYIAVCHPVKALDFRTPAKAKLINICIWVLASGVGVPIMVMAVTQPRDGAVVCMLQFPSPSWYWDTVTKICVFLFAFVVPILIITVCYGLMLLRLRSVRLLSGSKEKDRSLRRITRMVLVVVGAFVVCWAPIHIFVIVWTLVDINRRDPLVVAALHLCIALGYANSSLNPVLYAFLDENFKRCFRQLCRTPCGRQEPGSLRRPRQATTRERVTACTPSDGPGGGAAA", "test": "Binding of ^125 I-beta-endorphin to NG108-15 cells", "conditions": "read-out: % Inhibition of Specific ^125 I-beta-endorphin", "method": "Seventy percent of the total binding was specific by conventional criteria.\nFor this experiment, ^125 I-beta-endorphin was preincubated 30 minutes with various amounts of the complementary peptide, gamma-ODNE, before a 30 minute (37° C.) incubation with NG108-15 cells in microtiter wells. After the incubation, cells were washed 3 times and cell associated radioactivity wad determined with a Packard Multi-Prias gamma counter."}}, "note": "Where no end group is shown, it is not given here.", "data": [{"compound": "ACTH: Synthetic ACTH, fragment 1-24, obtained from Organon; unlabelled ACTH of RIA kit in later examples", "values": [{"measurement": "Corticosterone equivalents", "setting": "[1]; Experiment 1", "value": 1.08, "unit": "µg/mL"}, {"measurement": "Corticosterone equivalents", "setting": "[1]; Experiment 2", "value": 1.42, "unit": "µg/mL"}, {"measurement": "effect on binding to Y-1 cells, absorbancy at 405 nM (in words)", "setting": "[2]", "value": "blocked binding of the anti-HTCA in a dose dependent manner"}, {"measurement": "Percent Specific Binding", "setting": "[3]; competitor 20 pg/ml", "value": 90, "unit": "%"}, {"measurement": "Percent Specific Binding", "setting": "[3]; competitor 50 pg/ml", "value": 77.5, "unit": "%"}, {"measurement": "Percent Specific Binding", "setting": "[3]; competitor 100 pg/ml", "value": 62.2, "unit": "%"}, {"measurement": "Percent Specific Binding", "setting": "[3]; competitor 200 pg/ml", "value": 42, "unit": "%"}, {"measurement": "Percent Specific Binding", "setting": "[3]; competitor 500 pg/ml", "value": 21.6, "unit": "%"}, {"measurement": "% Inhibition of Specific Binding", "setting": "[4]; 50 pg/ml ACTH in FCS, Log10 Dilution 0", "value": 91, "unit": "%"}, {"measurement": "Log10 Dilution at which 50% inhibition occurred", "setting": "[4]; 50 pg/ml serum sample", "value": -1.1}, {"measurement": "% Inhibition of Specific Binding", "setting": "[4]; 50 pg/ml, Log10 Dilution -0.5", "value": 73, "unit": "%"}, {"measurement": "% Inhibition of Specific Binding", "setting": "[4]; 50 pg/ml, Log10 Dilution -1.0", "value": 40, "unit": "%"}, {"measurement": "% Inhibition of Specific Binding", "setting": "[4]; 50 pg/ml, Log10 Dilution -1.5", "value": 44, "unit": "%"}, {"measurement": "% Inhibition of Specific Binding", "setting": "[4]; 50 pg/ml, Log10 Dilution -2.0", "value": 9, "unit": "%"}, {"measurement": "% Inhibition of Specific Binding", "setting": "[4]; 50 pg/ml, Log10 Dilution -2.5", "value": 1, "unit": "%"}, {"measurement": "% Inhibition of Specific Binding", "setting": "[4]; 50 pg/ml, Log10 Dilution -3.0", "value": 0, "unit": "%"}, {"measurement": "% Inhibition of Specific Binding", "setting": "[4]; 50 pg/ml, Log10 Dilution -3.5", "value": 0, "unit": "%"}, {"measurement": "% Inhibition of Specific Binding", "setting": "[4]; 500 pg/ml ACTH in FCS, Log10 Dilution 0", "value": 85, "unit": "%"}, {"measurement": "Log10 Dilution at which 50% inhibition occurred", "setting": "[4]; 500 pg/ml serum sample", "value": -2.0}, {"measurement": "% Inhibition of Specific Binding", "setting": "[4]; 500 pg/ml, Log10 Dilution -0.5", "value": 90, "unit": "%"}, {"measurement": "% Inhibition of Specific Binding", "setting": "[4]; 500 pg/ml, Log10 Dilution -1.0", "value": 77, "unit": "%"}, {"measurement": "% Inhibition of Specific Binding", "setting": "[4]; 500 pg/ml, Log10 Dilution -1.5", "value": 57, "unit": "%"}, {"measurement": "% Inhibition of Specific Binding", "setting": "[4]; 500 pg/ml, Log10 Dilution -2.0", "value": 53, "unit": "%"}, {"measurement": "% Inhibition of Specific Binding", "setting": "[4]; 500 pg/ml, Log10 Dilution -2.5", "value": 35, "unit": "%"}, {"measurement": "% Inhibition of Specific Binding", "setting": "[4]; 500 pg/ml, Log10 Dilution -3.0", "value": 32, "unit": "%"}, {"measurement": "% Inhibition of Specific Binding", "setting": "[4]; 500 pg/ml, Log10 Dilution -3.5", "value": 20, "unit": "%"}]}, {"compound": "C=CCN1CC[C@]23c4c5ccc(O)c4O[C@H]2C(=O)CC[C@@]3(O)[C@H]1C5", "note": "[naloxone]", "values": [{"measurement": "reversal of serum-induced catatonia (in words)", "setting": "[5]", "value": "reversed"}]}, {"compound": "QRDKGRLALLGGHEPAV [gamma-odne, H2 N--gln--arg--asp--lys--gly--arg--leu--ala--leu--leu--gly--gly--his--glu--pro--ala--val--COOH]", "values": [{"measurement": "gamma-endorphin binding to coated wells, absorbance at 405 nM (in words)", "setting": "[6]", "value": "significantly bound"}, {"measurement": "inhibition at 100 µM", "setting": "[7]; 10^-4 M", "value": "75 ± 0.6", "unit": "%"}, {"measurement": "inhibition at 10 µM", "setting": "[7]; 10^-5 M", "value": "36 ± 2.1", "unit": "%"}, {"measurement": "inhibition at 1 µM", "setting": "[7]; 10^-6 M, 30 min preincubation with 10^-11 M label", "value": "24.7 ± 3.9", "unit": "%"}]}]}
